Where two headings read alike, the source gives them in different places.
How the values were obtained:
[1] = tested on: oral biofilms grown from unstimulated saliva
Procedure: (§1) BHI medium (Biolife) with an additional 0.05 mg/L haemin, 0.005 mg/L menadione and 0.2 mM vitamin K (all Sigma-Aldrich) was prepared of which 100 pi was added to each well for background impedance measurements. An additional 25 µl of a 65 mM nitrate in water or just water were added to each well of the nitrate or control condition, respectively. Then, 125 pi freshly collected saliva was added, leading to a final concentration of 6.5 mM nitrate in the nitrate condition. The E-Plate 96 was placed in the xCELLigence system inside an incubator at 37° C. Every 10 minutes, a Cell Index measurement was taken. […] For Oh measurements, 1:1 medium and saliva mixtures were used. Then, duplicates of supernatant and biofilm were taken after 5 h and 9 h of growth. The supernatant was sampled and stored at −20° C. until pH, nitrate, nitrite, ammonium and lactate measurements. After this, a PBS washing step was performed and duplicates of biofilms were resuspended together in 200 pi PBS for storage at −20° C. until DNA isolation for sequencing.

[2] = tested on: oral biofilms grown from unstimulated saliva; remark: listed apart in the source
Procedure: as §1
(§2) For the nitrate, nitrite, ammonium, lactate and pH measurements, the RQflex® 10 Reflectoquant® (Merck Millipores), a reflectometer that measures the reflection of color changing test strips, was used.
In the case of nitrate, nitrite, ammonium and lactate measurements, the supernatant of the cultures was diluted 1:10 with water to minimize the interference of medium compounds. […] For pH measurements, undiluted supernatant was used. For all measurements except ammonium, 15 pi of (diluted) supernatant was added to two reactive patches on a strip, excess liquid was removed by tipping the side of the strip on a tissue, the corresponding incubation time was applied for each measurement, and the strip was put inside the reflectometer.
Nitrite was measured first. The diluted supernatants in which 0.5 mg/l or more nitrite was detected were treated with amidosulfuric acid to remove nitrite before nitrate measurements. For this, […] of diluted supernatant was mixed with 1.5 ml amidosulfuric acid solution (10%), and directly added to the strips.
For ammonium measurements, aliquots were made of […] diluted supernatant to which 10 m l of reagent 1 of the kit was added first and resuspended well. Then, […] of a freshly made mixture of one scoop of reagent 2 (both provided with the kit) dissolved in 1.25 ml water was added directly and resuspended well. This solution was then directly added to the strips and incubated. Five seconds before the measurements, excess liquid was removed. All measured concentrations were adjusted by dilution factors.

unstimulated saliva = tested on: unstimulated saliva
Procedure: The unstimulated saliva of D25-D33 was used to test the effect of different concentrations of nitrate on a pH drop caused by 0.2% of glucose after 5 h of incubation. For each donor, 187 µl of saliva and 22 µl of glucose (2% diluted in water) was added per well of a standard 96-well plate. Then, 11 pL of water without or with different concentrations of nitrate was added, leading to final concentrations of 0 mM, 0.5 mM, 1 mM, 1.5 mM, 2.5 mM, 3.5 mM, 4.5 mM, 5.5 mM, 6.5 mM, 7.5 mM and 8.5 mM of nitrate. The plate was sealed with adhesive aluminum foil (VWR) and incubated during 5 h at 37° C. After incubation, the samples were stored at −20° C. until pH measurements.
as §2

[3] = tested on: oral biofilms grown from unstimulated saliva; details: 6.5 mM nitrate
Procedure: as §1
For DNA extraction, the biofilms were resuspended in 100 pi PBS and disaggregated 30 s in a sonicator bath (model Raypa VCI-50) at low ultrasound intensity. After this, DNA was isolated by MagNA Pure LC 2.0 Instrument (Roche Diagnostics), using the MagNA Pure LC DNA Isolation Kit III for Bacteria and Fungi (Roche Diagnostics) following the manufacturer's instructions with an additional enzymatic lysis step: to a salivary pellet in 100 pi PBS, […] lysis buffer and […] of enzyme mix, containing 20 mg/ml lysozyme ([…]), 5 mg/l lysostaphin (Sigma-Aldrich) and 0.625 mg/ml mutanolysin (Sigma-Aldrich), were added and incubated for 60 min at 37° C. DNA was resuspended in […] elution buffer and frozen at −20° C. until further analysis. To determine the amount of DNA for sequencing, the Quant-iT™ PicoGreen® dsDNA Assay Kit (ThermoFisher) and a Qubit™ 3 Fluorometer (ThermoScientific) were used, according to manufacturer's instructions.
A pre-amplification step of the V1-V5 regions of the 16S rRNA gene was performed, following Dzidic et al 2019. An Illumina amplicon library was performed following the 16S rDNA gene Metagenomic Sequencing Library Preparation Illumina protocol (Part #15044223 Rev. A). The gene-specific primer sequences used in this protocol were 16S Amplicon F (SEQ ID NO: 8) and 16S Amplicon R (SEQ ID NO: 9), targeting the 16S rDNA gene V3 and V4 regions, resulting in a single amplicon of 460 bp. Overhang adapter sequences were used together for compatibility with Illumina index and sequencing adapters. After 16S rDNA gene amplification, the DNA was sequenced on a MiSeq Sequencer according to manufacturer's instructions (Illumina) using the 2×300 bp paired-ends protocol.
The sequences were analyzed according to Boix-Amoros et al., 2016. In short, the reads were quality-filtered and end-trimmed in 10 bp windows with Prinseq. The PCR chimeras were removed with UCHIME according to Edgar et al., 2011. Only filtered sequences >250 bp were used to be taxonomically assigned at the genus level with the classifier of the Ribosomal Database Project (Wang et al., 2007), using a confidence interval of 80%. Operational Taxonomic Unit (OTU) picking was performed using VSEARCH (Rognes, 2016) at a 97% of sequence identity. Each OTU was aligned centroid using BLAST at 97% of identity and 100% query coverage, and retrieved only those species that agreed with the previous classification of the centroid at genus level provided by RDP classifier.
Overall R programming language was used for statistical computing to perform downstream analyses. Genera with an abundance of <0.01% were removed from all groups.

[4] = tested on: oral biofilm grown from saliva of donors D2 and D25; assay: Effect of isolates on in vitro biofilms: colonization by sequencing; format: cell-based, human; details: 5 h of growth
Procedure: Six isolates selected as best potential probiotics based on the results from previous experiments were studied in vitro to define the effect of these isolates when they are added to an oral biofilm. These isolates were tested by growing them with saliva of two different donors (D2 and D25 in our database) in a 96-wells plate. For each experiment, there were 4 conditions: control, nitrate (i.e., 6.5 mM nitrate), control+isolate, and nitrate+isolate. […] Then, 100 pL of saliva (or BHI for negative controls) was added and, for the nitrate conditions, 10 pL of nitrate solution 65 mM was added (or 10 pL of BHI for control conditions). Negative controls were added in each experiment: only BHI medium and BHI medium+nitrate. Before being added to the 96-well plate, the isolates were grown for 24 h. Then, 40 pL isolate in BHI solution with OD 1.5 was added (or 40 pL of just BHI in conditions without isolates) to each well. The final concentration of nitrate was 6.5 mM and starting OD of the isolate was 0.24. The 96-well plate was sealed to prevent oxygen presence, and incubated during 5 h 30 min at 37° C. After that, the supernatant was collected, the pellet resuspended in 30 pL of PBS and both stored at −20° C. until measurements were performed. The DNA was extracted and the biofilms were sequenced as described in EXAMPLE 1.

[5] = tested on: biofilms from subgingival plaque of patients with periodontitis
Procedure: In addition to the oral biofilms from healthy individuals provided in EXAMPLE 1, ex vivo experiments with a dysbiotic community (subgingival plaque samples from patients with periodontitis) were performed. Eleven patients diagnosed with periodontitis were enrolled into the study. Subgingival plaque was collected by inserting eight to ten sterile paper points inside the deepest periodontal pockets. The paper points were then transferred to a 2 mL tube containing reduced transport media (RTF) and stored in a cooling box at around 4° C. for max. 18 hours. For the biofilm growth, BHI containing vitamin K and hemin (as described in EXAMPLE 1) was used. Transport medium was removed by centrifugation (1 min, 12000 rpm), followed by resuspension into 1 mL BHI. The xCELLigence system described in EXAMPLE 1 was used. Patient samples were incubated under four different conditions; control, nitrate, control+probiotic and nitrate+probiotic. First, 100 µl of periodontal plaque in BHI was added to the wells. Then, for the nitrate condition, 5 µl of 250 mM nitrate in BHI was added to the wells to obtain a 5 mM nitrate concentration. For the control+probiotic and nitrate+probiotic conditions, 45 pi of R. aeria D1P7 culture of OD (600 nm)=0.417 was added to the wells, resulting in a final OD (600 nm) of 0.075 per well. BHI was added to reach a final volume of 250 pi. A medium control (without patient sample or probiotic) with nitrate (Cntr) was used to determine the initial amounts of nitrate and nitrite in the medium. After 7 hours of incubation, supernatant and biofilm was harvested for nitrate/nitrite measurements and 16S rRNA gene sequencing, respectively (both described in EXAMPLE 1).

[6] = adult of 60 kg; cited from earlier work
[7] = in vivo; cited from earlier work
[8] = Donor 2, Nitrate condition (6.5 mM)
[9] = Donor 25, Nitrate condition (6.5 mM)

## O=[N+]([O-])O [Nitrate, nitrate]
[1]; 6.5 mM nitrate (403 mg/L)
  real-time impedance measurements of biofilm growth compared to control biofilms: did not show significant changes
[1]; 6.5 mM nitrate, 5 h and 9 h
  biofilm protein levels compared to control: did not differ significantly
[2]; 6.5 mM nitrate added, 5 of 12 donors
  decrease of nitrate after 5 h: 76-85%
[2]; 6.5 mM nitrate added, 7 of 12 individuals
  nitrate left after 5 h: no nitrate detectable
[2]; 6.5 mM nitrate condition, 5 h (1.64 mg/l at 0 h)
  average nitrite in supernatant: 64.68 mg/L
[2]; 6.5 mM nitrate, 5 h and 9 h, p<0.005
  pH compared to control condition: significantly higher
[2]; after 9 h
  share of the 6.5 mM added nitrate accounted for by ammonium (stoichiometric): 73.1%
[2]; nitrate condition (control 1.72×)
  increase of average ammonium after 5 h: 2.21 ×
[2]; nitrate condition (control 4.74×)
  increase of average lactate after 5 h: 3.40 ×
[2]; nitrate condition, after 9 h
  ammonium higher than in the control condition: 4.75 mM
Unstimulated saliva; 0.2% glucose, nitrate 0.5 mM to 8.5 mM
  salivary pH after 5 h compared to 0 mM nitrate: higher pH
Unstimulated saliva; after 5 h
  nitrate concentrations for which no additional benefits were observed: above 3.5 mM
  nitrate concentrations that prevented salivary acidification due to glucose fermentation: ≥ 0.5 mM
[3]; 5 h
  increase of Neisseria compared to control condition: 3.5 ×
[3]; 5 h (n = 12)
  Bacterial abundance Aggregatibacter (Average): 0.55%
  Bacterial abundance Alloprevotella (Average): 0.21%
  Bacterial abundance Fusobacterium (Average): 0.15%
  Bacterial abundance Gemella (Average): 2.76%
  Bacterial abundance Granulicatella (Average): 2.16%
  Bacterial abundance Haemophilus (Average): 7.30%
  Bacterial abundance Leptotrichia (Average): 0.14%
  Bacterial abundance Neisseria (Average): 20.65%
  Bacterial abundance Other (Average): 3.64%
  Bacterial abundance Porphyromonas (Average): 0.56%
  Bacterial abundance Prevotella (Average): 1.99%
  Bacterial abundance Rothia (Average): 0.53%
  Bacterial abundance Streptococcus (Average): 45.29%
  Bacterial abundance Viellonella (Average): 10.84%
  Bacterial abundance unclass. Neisseriaceae (Average): 0.95%
  Bacterial abundance unclass. Pasteurellaceae (Average): 2.00%
  Bacterial abundance unclass. Veillonellaceae (Average): 0.26%
[3]; 5 h and 9 h
  Rothia higher than in control condition: 2.7 ×
[3]; 9 h
  increase of Neisseria compared to control condition: 4.9 ×
[3]; 9 h (n = 12)
  Bacterial abundance Aggregatibacter (Average): 0.72%
  Bacterial abundance Alloprevotella (Average): 0.37%
  Bacterial abundance Fusobacterium (Average): 0.38%
  Bacterial abundance Gemella (Average): 1.83%
  Bacterial abundance Granulicatella (Average): 1.56%
  Bacterial abundance Haemophilus (Average): 8.86%
  Bacterial abundance Leptotrichia (Average): 0.16%
  Bacterial abundance Neisseria (Average): 20.99%
  Bacterial abundance Other (Average): 4.80%
  Bacterial abundance Porphyromonas (Average): 1.51%
  Bacterial abundance Prevotella (Average): 2.78%
  Bacterial abundance Rothia (Average): 0.25%
  Bacterial abundance Streptococcus (Average): 31.75%
  Bacterial abundance Viellonella (Average): 20.40%
  Bacterial abundance unclass. Neisseriaceae (Average): 1.07%
  Bacterial abundance unclass. Pasteurellaceae (Average): 2.12%
  Bacterial abundance unclass. Veillonellaceae (Average): 0.38%
[3]; after 5 h, p<0.05
  change of Kingella: increased significantly
[3]; p<0.05 at 5 h and/or 9 h
  Porphyromonas, Fusobacterium, Leptotrichia, Alloprevotella, Dialister and Parvimonas versus control: significantly lower
[3]; p<0.05 at 5 h or 5 h and 9 h
  change of caries-associated Atopobium and Oribacterium: decreased significantly
[4]; [8]
  R. aeria (%) in biofilm: 0.06%
  R. mucilaginosa (%) in biofilm: 2.33%
[4]; [9]
  R. aeria (%) in biofilm: 0.03%
  R. mucilaginosa (%) in biofilm: 7.94%
[5]; 11 patients, 7 h
  mean growth curve of the periodontitis biofilms versus control condition: lower
[5]; 7 hours, versus control
  levels of periodontal pathogens such as Porphyromonas, Eikenella and Tannerella: reducing the levels
[5]; periodontal samples (n=11), anaerobic
  nitrate reduced after the 7 hours of growth: around 20%
[6]
  Acceptable Daily Intake, ADI: 222 mg
[7]
  nitrate recycled by the salivary glands into saliva: 25%
  nitrate removed from the body by the kidneys into the urine: Around 75%

Source: patent publication US20230141823A1, “PREBIOTIC AND PROBIOTIC TREATMENT TO REDUCE ORAL DYSBIOSIS AND PROMOTE EUBIOSIS” (FUNDACIÓN PARA EL FOMENTO DE LA INVESTIGACIÓN SANITARIA Y …, priority 2019, published 2023)
